Eight compounds from US9340590B2 (priority 2011, dated 2016) can be followed below.

What all share (experiment): cell-based
The target of one assay is hNav1.7 (Homo sapiens, UniProt Q15858). Type of assay: cell-based. The settings on record: IonWorks Quattro, use-dependent block, hNav1.7; read-out: IWQ Use Nav1.7. In general terms: Patch clamp records ionic current or voltage across a cell membrane.
A further assay addresses hNav1.5 (Homo sapiens, UniProt Q14524). The settings on record: IonWorks Quattro, use-dependent block, hNav1.5; read-out: IWQ Use Nav1.5.
A further assay concerns the target hNav1.3 (Homo sapiens, UniProt Q9NY46). The settings on record: IonWorks Quattro, use-dependent block, hNav1.3; read-out: IWQ Use Nav1.3.

Positions of bridges follow the written chain, without caps; N, C: chain ends. Non-standard residues stand in square brackets, D forms with d. Residues, ends and D or L forms follow the SMILES beside them. Lys(Me) = CNCCCC[C@H](N)C(=O)O; Pra = C#CC[C@H](N)C(=O)O

Sequence of hNav1.5 (Q14524 whole entry, looked up): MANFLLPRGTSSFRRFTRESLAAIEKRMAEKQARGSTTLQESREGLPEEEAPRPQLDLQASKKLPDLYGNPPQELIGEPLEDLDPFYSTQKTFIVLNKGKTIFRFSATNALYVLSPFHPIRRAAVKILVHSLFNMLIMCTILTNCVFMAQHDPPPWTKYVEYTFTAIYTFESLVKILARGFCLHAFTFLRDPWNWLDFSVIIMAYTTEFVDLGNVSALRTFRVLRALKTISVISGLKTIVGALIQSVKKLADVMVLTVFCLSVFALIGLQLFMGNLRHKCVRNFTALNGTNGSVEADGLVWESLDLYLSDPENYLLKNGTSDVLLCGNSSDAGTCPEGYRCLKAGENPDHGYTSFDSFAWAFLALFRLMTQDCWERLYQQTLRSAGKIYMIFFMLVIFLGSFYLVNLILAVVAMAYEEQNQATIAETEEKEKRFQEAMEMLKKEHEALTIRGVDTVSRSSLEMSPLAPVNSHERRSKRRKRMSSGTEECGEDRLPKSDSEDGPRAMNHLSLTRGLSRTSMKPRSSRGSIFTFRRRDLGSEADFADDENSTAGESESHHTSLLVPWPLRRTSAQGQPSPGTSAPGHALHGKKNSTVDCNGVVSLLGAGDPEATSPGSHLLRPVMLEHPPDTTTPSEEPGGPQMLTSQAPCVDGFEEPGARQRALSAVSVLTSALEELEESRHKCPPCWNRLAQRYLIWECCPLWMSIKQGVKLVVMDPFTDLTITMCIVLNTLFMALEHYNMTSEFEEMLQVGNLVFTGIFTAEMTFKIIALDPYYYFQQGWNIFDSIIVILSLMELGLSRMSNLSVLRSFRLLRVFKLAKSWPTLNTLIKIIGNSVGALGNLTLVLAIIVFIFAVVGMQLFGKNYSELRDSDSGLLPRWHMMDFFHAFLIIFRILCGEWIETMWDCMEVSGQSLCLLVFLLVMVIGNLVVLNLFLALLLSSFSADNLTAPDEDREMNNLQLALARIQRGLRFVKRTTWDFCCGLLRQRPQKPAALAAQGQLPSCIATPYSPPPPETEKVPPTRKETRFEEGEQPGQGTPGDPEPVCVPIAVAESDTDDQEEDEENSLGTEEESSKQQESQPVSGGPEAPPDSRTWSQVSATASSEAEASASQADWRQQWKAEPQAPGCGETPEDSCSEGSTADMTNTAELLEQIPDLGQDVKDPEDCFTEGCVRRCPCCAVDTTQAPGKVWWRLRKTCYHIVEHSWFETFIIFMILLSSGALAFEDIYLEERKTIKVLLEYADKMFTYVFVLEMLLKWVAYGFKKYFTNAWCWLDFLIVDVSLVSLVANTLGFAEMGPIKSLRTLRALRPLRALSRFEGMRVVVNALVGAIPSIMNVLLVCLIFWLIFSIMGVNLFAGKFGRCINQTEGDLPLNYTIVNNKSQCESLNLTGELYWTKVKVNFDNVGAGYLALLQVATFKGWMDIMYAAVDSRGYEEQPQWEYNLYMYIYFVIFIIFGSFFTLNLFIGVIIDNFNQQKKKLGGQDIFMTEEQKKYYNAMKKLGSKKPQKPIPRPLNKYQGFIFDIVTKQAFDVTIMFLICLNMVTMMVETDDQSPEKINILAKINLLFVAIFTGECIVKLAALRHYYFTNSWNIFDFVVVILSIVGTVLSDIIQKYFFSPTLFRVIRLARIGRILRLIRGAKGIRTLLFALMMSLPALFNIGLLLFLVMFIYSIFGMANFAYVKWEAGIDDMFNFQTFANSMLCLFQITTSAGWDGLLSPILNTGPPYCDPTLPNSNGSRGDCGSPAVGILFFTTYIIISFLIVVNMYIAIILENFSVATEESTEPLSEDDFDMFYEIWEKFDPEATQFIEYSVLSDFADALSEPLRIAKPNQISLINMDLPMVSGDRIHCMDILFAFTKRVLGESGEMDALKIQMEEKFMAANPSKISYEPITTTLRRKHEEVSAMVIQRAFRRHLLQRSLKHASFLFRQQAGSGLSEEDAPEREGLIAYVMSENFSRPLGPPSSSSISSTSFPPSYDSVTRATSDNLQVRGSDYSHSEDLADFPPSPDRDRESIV
Sequence of hNav1.3 (Q9NY46 whole entry, looked up): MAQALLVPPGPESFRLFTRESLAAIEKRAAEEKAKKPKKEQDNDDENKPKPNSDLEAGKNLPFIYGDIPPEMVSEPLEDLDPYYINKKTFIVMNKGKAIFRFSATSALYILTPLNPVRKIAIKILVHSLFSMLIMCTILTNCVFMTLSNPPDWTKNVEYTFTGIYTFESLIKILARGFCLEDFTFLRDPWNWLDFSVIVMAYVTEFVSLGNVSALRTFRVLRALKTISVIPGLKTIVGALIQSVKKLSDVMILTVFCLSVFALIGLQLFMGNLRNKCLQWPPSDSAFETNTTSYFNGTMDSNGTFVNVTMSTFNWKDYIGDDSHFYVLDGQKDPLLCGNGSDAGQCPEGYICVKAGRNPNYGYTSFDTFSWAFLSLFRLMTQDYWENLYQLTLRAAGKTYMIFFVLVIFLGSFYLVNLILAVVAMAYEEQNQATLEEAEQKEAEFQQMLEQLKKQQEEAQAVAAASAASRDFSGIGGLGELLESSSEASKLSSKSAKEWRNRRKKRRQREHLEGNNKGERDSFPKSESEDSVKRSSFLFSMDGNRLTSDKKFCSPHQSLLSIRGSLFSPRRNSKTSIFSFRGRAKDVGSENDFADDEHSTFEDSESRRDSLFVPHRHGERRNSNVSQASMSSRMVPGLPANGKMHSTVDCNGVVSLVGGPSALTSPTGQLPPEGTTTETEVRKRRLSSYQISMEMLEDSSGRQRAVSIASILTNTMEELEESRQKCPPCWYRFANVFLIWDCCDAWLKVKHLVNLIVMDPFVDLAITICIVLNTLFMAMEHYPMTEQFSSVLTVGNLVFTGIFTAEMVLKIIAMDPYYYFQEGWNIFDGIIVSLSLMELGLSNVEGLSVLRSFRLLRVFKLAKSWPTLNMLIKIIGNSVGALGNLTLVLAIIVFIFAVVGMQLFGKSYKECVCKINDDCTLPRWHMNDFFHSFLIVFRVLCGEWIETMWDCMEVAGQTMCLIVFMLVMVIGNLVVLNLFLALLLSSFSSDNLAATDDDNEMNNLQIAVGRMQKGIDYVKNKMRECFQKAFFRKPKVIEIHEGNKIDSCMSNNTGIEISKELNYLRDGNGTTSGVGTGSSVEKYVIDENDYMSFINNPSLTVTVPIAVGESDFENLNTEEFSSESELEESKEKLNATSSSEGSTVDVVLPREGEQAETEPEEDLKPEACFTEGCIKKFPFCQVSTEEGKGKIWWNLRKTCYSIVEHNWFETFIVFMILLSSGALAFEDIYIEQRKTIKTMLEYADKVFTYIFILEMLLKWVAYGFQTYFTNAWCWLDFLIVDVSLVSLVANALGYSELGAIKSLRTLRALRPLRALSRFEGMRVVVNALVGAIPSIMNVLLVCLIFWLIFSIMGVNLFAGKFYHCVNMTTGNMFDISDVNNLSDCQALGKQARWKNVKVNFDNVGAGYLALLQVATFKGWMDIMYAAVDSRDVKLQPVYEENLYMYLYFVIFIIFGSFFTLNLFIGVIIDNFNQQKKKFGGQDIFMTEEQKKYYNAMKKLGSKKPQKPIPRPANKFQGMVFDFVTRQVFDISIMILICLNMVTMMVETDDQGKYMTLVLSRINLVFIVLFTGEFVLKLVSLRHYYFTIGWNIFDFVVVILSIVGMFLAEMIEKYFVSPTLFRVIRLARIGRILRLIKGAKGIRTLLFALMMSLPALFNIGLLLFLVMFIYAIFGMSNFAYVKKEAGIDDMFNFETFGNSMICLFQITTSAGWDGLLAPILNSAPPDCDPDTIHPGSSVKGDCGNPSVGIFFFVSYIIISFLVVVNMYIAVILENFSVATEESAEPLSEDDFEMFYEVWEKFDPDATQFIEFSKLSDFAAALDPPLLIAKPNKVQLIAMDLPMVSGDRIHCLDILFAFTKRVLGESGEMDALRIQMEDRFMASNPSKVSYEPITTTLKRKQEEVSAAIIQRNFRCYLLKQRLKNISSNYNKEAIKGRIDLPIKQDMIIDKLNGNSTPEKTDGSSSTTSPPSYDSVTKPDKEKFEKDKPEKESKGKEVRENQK

On to `CC[C@H](C)[C@@H]1NC(=O)[C@@H]2CSSC[C@@H]3NC(=O)[C@H](C(C)C)NC(=O)[C@H](CC(C)C)NC(=O)[C@H](CC(N)=O)NC(=O)[C@@H]4CCCN4C(=O)[C@H](CCCNC(=N)N)NC(=O)[C@H](CSSC[C@H](NC(=O)[C@@H](N)CC(=O)O)C(=O)N[C@@H](CC(C)C)C(=O)NCC(=O)N[C@@H](C)C(=O)N[C@@H](CCSC)C(=O)N[C@@H](CCCNC(=N)N)C(=O)N[C@@H](CCCCN)C(=O)N2)NC(=O)[C@H](CSSC[C@@H](C(=O)N[C@@H](CCCCN)C(=O)N[C@@H](Cc2ccc(O)cc2)C(=O)N[C@H](C(=O)N[C@@H](Cc2ccccc2)C(N)=O)C(C)C)NC(=O)[C@H](Cc2c[nH]c4ccccc24)NC(=O)[C@H](CCSC)NC(=O)[C@H](Cc2c[nH]cn2)NC(=O)[C@H]([C@@H](C)O)NC(=O)[C@H](CCCNC(=N)N)NC(=O)[C@H](CO)NC3=O)NC(=O)[C@H](CCCCN)NC(=O)[C@H](CC(=O)O)NC(=O)[C@H](CC(N)=O)NC(=O)[C@H](CC(=O)O)NC(=O)[C@@H]2CCCN2C1=O` [compound 770] (H-DCLGAMRKCIPDNDKCCRPNLVCSRTHMWCKYVF-NH2; disulfide 2-17, 9-23, 16-30), for which the values for the IC50 at hNav1.7, on hNav1.5 and on hNav1.3 were 1 µM, 45.4 µM and 4.1 µM, respectively.
The like results for `CC[C@H](C)[C@@H]1NC(=O)[C@@H]2CSSC[C@@H]3NC(=O)[C@H](C(C)C)NC(=O)[C@H](CC(C)C)NC(=O)[C@H](CC(N)=O)NC(=O)[C@@H]4CCCN4C(=O)[C@H](CCCNC(=N)N)NC(=O)[C@H](CSSC[C@H](NC(=O)[C@@H](N)CC(=O)O)C(=O)N[C@@H](CC(C)C)C(=O)NCC(=O)N[C@@H](C)C(=O)N[C@@H](CCSC)C(=O)N[C@@H](CCCNC(=N)N)C(=O)N[C@@H](CCCCN)C(=O)N2)NC(=O)[C@H](CSSC[C@@H](C(=O)N[C@@H](CCCCN)C(=O)N[C@@H](Cc2ccc(O)cc2)C(=O)N[C@H](C(=O)N[C@@H](Cc2ccccc2)C(N)=O)C(C)C)NC(=O)[C@H](Cc2c[nH]c4ccccc24)NC(=O)[C@H](CCCCNC)NC(=O)[C@H](Cc2c[nH]cn2)NC(=O)[C@H]([C@@H](C)O)NC(=O)[C@H](CCCNC(=N)N)NC(=O)[C@H](CO)NC3=O)NC(=O)[C@H](CCCCN)NC(=O)[C@H](CC(=O)O)NC(=O)[C@H](CC(N)=O)NC(=O)[C@H](CC(=O)O)NC(=O)[C@@H]2CCCN2C1=O` [compound 771] (H-DCLGAMRKCIPDNDKCCRPNLVCSRTH[Lys(Me)]WCKYVF-NH2; disulfide 2-17, 9-23, 16-30) were, in that order, 1.6 µM, 40.1 µM and 1.8 µM.
`CSCC[C@@H]1NC(=O)[C@H]([C@@H](C)O)NC(=O)CNC(=O)[C@H](CC(C)C)NC(=O)[C@@H](NC(=O)[C@@H](N)CC(=O)O)CSSC[C@@H]2NC(=O)[C@@H]3CSSC[C@@H](C(=O)N[C@@H](CCCCN)C(=O)N[C@@H](Cc4ccc(O)cc4)C(=O)N[C@H](C(=O)N[C@@H](Cc4ccccc4)C(N)=O)C(C)C)NC(=O)[C@H](Cc4c[nH]c5ccccc45)NC(=O)[C@H](CCCCN)NC(=O)[C@H](Cc4c[nH]cn4)NC(=O)[C@H]([C@@H](C)O)NC(=O)[C@H](CCCNC(=N)N)NC(=O)[C@H](CO)NC(=O)[C@H](CSSC[C@H](NC(=O)[C@H](CCCCN)NC(=O)[C@H](CCCNC(=N)N)NC1=O)C(=O)N[C@@H](CC(=O)O)C(=O)N1CCC[C@H]1C(=O)N[C@@H](CCC(=O)O)C(=O)N[C@@H](CC(N)=O)C(=O)N[C@@H](CC(=O)O)C(=O)N[C@@H](CCCCN)C(=O)N3)NC(=O)[C@H](C(C)C)NC(=O)[C@H](CC(C)C)NC(=O)[C@H](CC(N)=O)NC(=O)[C@@H]1CCCN1C(=O)[C@H](CCCNC(=N)N)NC2=O` [compound 773] (H-DCLGTMRKCDPENDKCCRPNLVCSRTHKWCKYVF-NH2; disulfide 2-17, 9-23, 16-30): the results for the IC50 on hNav1.7, at hNav1.5 and on hNav1.3 were 4.5 µM, 28.4 µM and 3.4 µM, respectively.
In the same order, the values of `CC[C@H](C)[C@@H]1NC(=O)[C@@H]2CSSC[C@@H]3NC(=O)[C@H](C(C)C)NC(=O)[C@H](CC(C)C)NC(=O)[C@H](CC(N)=O)NC(=O)[C@@H]4CCCN4C(=O)[C@H](CCCNC(=N)N)NC(=O)[C@H](CSSC[C@H](NC(=O)[C@@H](N)CC(=O)O)C(=O)N[C@@H](CC(C)C)C(=O)NCC(=O)N[C@@H](C)C(=O)N[C@@H](CCSC)C(=O)N[C@@H](CCCNC(=N)N)C(=O)N[C@@H](CCCCN)C(=O)N2)NC(=O)[C@H](CSSC[C@@H](C(=O)N[C@@H](CCCCN)C(=O)N[C@@H](Cc2ccc(O)cc2)C(=O)N[C@H](C(=O)N[C@@H](Cc2ccccc2)C(N)=O)C(C)C)NC(=O)[C@H](Cc2c[nH]c4ccccc24)NC(=O)[C@H](CCCCN)NC(=O)[C@H](Cc2c[nH]cn2)NC(=O)[C@H](CCC(=O)O)NC(=O)[C@H](CCCNC(=N)N)NC(=O)[C@H](CO)NC3=O)NC(=O)[C@H](CCCCN)NC(=O)[C@H](CC(=O)O)NC(=O)[C@H](CC(N)=O)NC(=O)[C@H](CC(=O)O)NC(=O)[C@@H]2CCCN2C1=O` [compound 787] (H-DCLGAMRKCIPDNDKCCRPNLVCSREHKWCKYVF-NH2; disulfide 2-17, 9-23, 16-30) are above 5 µM, 27.3 µM and above 5 µM.
For the compound `CC[C@H](C)[C@@H]1NC(=O)[C@@H]2CSSC[C@@H]3NC(=O)[C@H](C(C)C)NC(=O)[C@H](CC(C)C)NC(=O)[C@H](CC(N)=O)NC(=O)[C@@H]4CCCN4C(=O)[C@H](CCCNC(=N)N)NC(=O)[C@H](CSSC[C@H](NC(=O)[C@@H](N)CC(=O)O)C(=O)N[C@@H](CC(C)C)C(=O)NCC(=O)N[C@@H](C)C(=O)N[C@@H](CCSC)C(=O)N[C@@H](CCCNC(=N)N)C(=O)N[C@@H](CCCCN)C(=O)N2)NC(=O)[C@H](CSSC[C@@H](C(=O)N[C@@H](CCCCN)C(=O)N[C@@H](Cc2ccc(O)cc2)C(=O)N[C@H](C(=O)N[C@@H](Cc2ccccc2)C(N)=O)C(C)C)NC(=O)[C@H](Cc2c[nH]c4ccccc24)NC(=O)[C@H](CCCCN)NC(=O)[C@H](CCC(=O)O)NC(=O)[C@H]([C@@H](C)O)NC(=O)[C@H](CCCNC(=N)N)NC(=O)[C@H](CO)NC3=O)NC(=O)[C@H](CCCCN)NC(=O)[C@H](CC(=O)O)NC(=O)[C@H](CC(N)=O)NC(=O)[C@H](CC(=O)O)NC(=O)[C@@H]2CCCN2C1=O` [compound 788] (H-DCLGAMRKCIPDNDKCCRPNLVCSRTEKWCKYVF-NH2; disulfide 2-17, 9-23, 16-30), the IC50 on hNav1.7 is above 5 µM; at hNav1.5, 29.7 µM; on hNav1.3 it was above 5 µM.
Take `CC[C@H](C)[C@@H]1NC(=O)[C@@H]2CSSC[C@@H]3NC(=O)[C@H](C(C)C)NC(=O)[C@H](CC(C)C)NC(=O)[C@H](CC(N)=O)NC(=O)[C@@H]4CCCN4C(=O)[C@H](CCCNC(=N)N)NC(=O)[C@H](CSSC[C@H](NC(=O)[C@@H](N)CC(=O)O)C(=O)N[C@@H](CC(C)C)C(=O)NCC(=O)N[C@@H](C)C(=O)N[C@@H](CCSC)C(=O)N[C@@H](CCCNC(=N)N)C(=O)N[C@@H](CCCCN)C(=O)N2)NC(=O)[C@H](CSSC[C@@H](C(=O)N[C@@H](CCC(=O)O)C(=O)N[C@@H](Cc2ccc(O)cc2)C(=O)N[C@H](C(=O)N[C@@H](Cc2ccccc2)C(N)=O)C(C)C)NC(=O)[C@H](Cc2c[nH]c4ccccc24)NC(=O)[C@H](CCCCN)NC(=O)[C@H](Cc2c[nH]cn2)NC(=O)[C@H]([C@@H](C)O)NC(=O)[C@H](CCCNC(=N)N)NC(=O)[C@H](CO)NC3=O)NC(=O)[C@H](CCCCN)NC(=O)[C@H](CC(=O)O)NC(=O)[C@H](CC(N)=O)NC(=O)[C@H](CC(=O)O)NC(=O)[C@@H]2CCCN2C1=O` [compound 789] (H-DCLGAMRKCIPDNDKCCRPNLVCSRTHKWCEYVF-NH2; disulfide 2-17, 9-23, 16-30): the IC50 is above 5 µM at hNav1.7, 31.8 µM at hNav1.5 and above 5 µM at hNav1.3.
For `CC[C@H](C)[C@@H]1NC(=O)[C@@H]2CSSC[C@@H]3NC(=O)[C@H](C(C)C)NC(=O)[C@H](CC(C)C)NC(=O)[C@H](CC(N)=O)NC(=O)[C@@H]4CCCN4C(=O)[C@H](CCCNC(=N)N)NC(=O)[C@H](CSSC[C@H](NC(=O)[C@@H](N)CC(=O)O)C(=O)N[C@@H](CC(C)C)C(=O)NCC(=O)N[C@@H](C)C(=O)N[C@@H](CCSC)C(=O)N[C@@H](CCCNC(=N)N)C(=O)N[C@@H](CCCCN)C(=O)N2)NC(=O)[C@H](CSSC[C@@H](C(=O)N[C@@H](CCCCN)C(=O)N[C@@H](Cc2ccc(O)cc2)C(=O)N[C@H](C(=O)N[C@@H](Cc2ccccc2)C(=O)N[C@@H](CCC(=O)O)C(N)=O)C(C)C)NC(=O)[C@H](Cc2c[nH]c4ccccc24)NC(=O)[C@H](CCCCN)NC(=O)[C@H](Cc2c[nH]cn2)NC(=O)[C@H]([C@@H](C)O)NC(=O)[C@H](CCCNC(=N)N)NC(=O)[C@H](CO)NC3=O)NC(=O)[C@H](CCCCN)NC(=O)[C@H](CC(=O)O)NC(=O)[C@H](CC(N)=O)NC(=O)[C@H](CC(=O)O)NC(=O)[C@@H]2CCCN2C1=O` [compound 790] (H-DCLGAMRKCIPDNDKCCRPNLVCSRTHKWCKYVFE-NH2; disulfide 2-17, 9-23, 16-30), the IC50 at hNav1.7 is above 5 µM; at hNav1.5, 28.5 µM; on hNav1.3, above 5 µM.
For `C#CC[C@@H]1NC(=O)[C@H](CC(=O)O)NC(=O)[C@@H]2CCCN2C(=O)[C@H]([C@@H](C)CC)NC(=O)[C@@H]2CSSC[C@@H]3NC(=O)[C@H](C(C)C)NC(=O)[C@H](CC(C)C)NC(=O)[C@H](CC(N)=O)NC(=O)[C@@H]4CCCN4C(=O)[C@H](CCCNC(=N)N)NC(=O)[C@H](CSSC[C@H](NC(=O)[C@@H](N)CC(=O)O)C(=O)N[C@@H](CC(C)C)C(=O)NCC(=O)N[C@@H](C)C(=O)N[C@@H](Cc4ccccc4)C(=O)N[C@@H](CCCNC(=N)N)C(=O)N[C@@H](CCCCN)C(=O)N2)NC(=O)[C@H](CSSC[C@@H](C(=O)N[C@@H](CCCCN)C(=O)N[C@@H](Cc2ccc(O)cc2)C(=O)N[C@H](C(=O)N[C@@H](Cc2ccccc2)C(N)=O)C(C)C)NC(=O)[C@H](Cc2c[nH]c4ccccc24)NC(=O)[C@H](CCCCN)NC(=O)[C@H](Cc2c[nH]cn2)NC(=O)[C@H]([C@@H](C)O)NC(=O)[C@H](CCCNC(=N)N)NC(=O)[C@H](CO)NC3=O)NC(=O)[C@H](CCCCN)NC(=O)[C@H](CC(=O)O)NC1=O` [compound 793] (H-DCLGAFRKCIPD[Pra]DKCCRPNLVCSRTHKWCKYVF-NH2; disulfide 2-17, 9-23, 16-30), the IC50 was 0.53 µM on hNav1.7, 28.6 µM on hNav1.5 and 0.47 µM on hNav1.3.
